{
  "source": "patent US5599808A",
  "about": "“Aqueous indolocarbazole solutions” (Cephalon, Inc., priority 1995, dated 1997)",
  "key": {"[1]": {"assay": "Concentration of dissolved indolocarbazole obtained in aqueous solutions (HPLC)", "conditions": "organic solvent or mixture", "protocol": "In general, a solution of the concentrate can be prepared by combining a dispersant such as polyvinylpyrrolidone C-30 and a selected organic solvent such as propylene glycol into a beaker. The mixture is continuously stirred until completely dissolved. Solid PVP or other solution components may take 1-2 hours to dissolve completely at room temperature.\nAn amount of an indolocarbazole, for example, staurosporine, K-252a, or any one of indolocarbazole A, B, or C (Table 1) can each be individually weighed and added to a small aliquot of the aqueous solution, resulting in a 10 mg/ml solution after the indolocarbazole completely dissolves. Alternatively, a mixture of indolocarbazoles may be combined, weighed, and added to a small aliquot of the aqueous solution resulting in a 10 mg/ml solution after the indolocarbazole completely dissolves. An indolocarbazole solution can be stirred or shaken vigorously overnight. Any undissolved indolocarbazole is removed by standard centrifugation or filtration techniques. The concentration of solubilized indolocarbazole can be determined by reversed phase HPLC using a UV detector (290 nm).\nThe following HPLC conditions are used to determine the concentration of an indolocarbazole:\nHPLC Column: Zorbax Rx C-18 4.6×250 mm, 5 micron particle size\nPrior to injection of an indolocarbazole solution, there is allowed a 10 minute equilibration time.\nFifty g of PEG-400 were added to 50 ml of water and the mixture vigorously stirred until completely dissolved. One mg of either K-252a, staurosporine or the indolocarbazoles B or C (see Table 1) were added individually to a 100 μl aliquot of the PEG-400 solution and the resulting mixture was shaken overnight. The solution was clarified by centrifugation at 1000 rpm for 10 minutes. The supernatant was saved and any residue discarded. Ten μl of the supernatant was removed, diluted with DMSO (100:1) and the concentration of dissolved K-252a determined by HPLC.\nSame as example 1 except that PEG-600 was used instead of PEG-400.\nSame as example 1 except that PEG-1000 was used instead of PEG-400.\nSame as example 1 except that 48 ml of water was used and 2 g of benzyl alcohol was added to the PEG-400 solution.\nSame as example 2 except that 48 ml of water was used and 2 g of benzyl alcohol was added to the PEG-600 solution.\nSame as example 3 except that 48 ml of water was used and 2 g of benzyl alcohol was added to the PEG-1000 solution.\n2.5 g of benzyl alcohol was added to 47.5 g of PEG-400 and, in a separate container, 2.5 g of Pluronic F68 was added to 47.5 ml of water. Each solution was stirred until completely dissolved, then each solution was combined and stirred until homogeneous. One mg of K-252a was added to 100 μl of the solution and the resulting mixture was shaken overnight. The solution was clarified by centrifugation at 1000 rpm for 10 minutes. Ten (10) μl of supernatant was removed, diluted with DMSO (100:1), and the concentration of dissolved K-252a determined by HPLC.\nSame as example 7 except that Pluronic™ L61 was used instead of Pluronic™ F68.\nSame as example 7 except that Pluronic™ L64 was used instead of Pluronic™ F68.\nSame as example 7 except that Tween™ 20 was used instead of Pluronic™ F68.\nSame as example 7 except that Tween™ 80 was used instead of Pluronic™ F68.\nSame as example 7 except that PVP was used instead of Pluronic™ F68 and PEG-300 was used instead of PEG-400.\nSame as example 12 except that PEG-400 was used instead of PEG-300 and indolocarbazoles A, B or C were each solubilized individually in addition to K-252a.\nSame as example 12 except that PEG-600 was used instead of PEG-300 and indolocarbazoles A, B or C were each solubilized individually in addition to K-252\nSame as example 12 except that PEG-1000 was used instead of PEG-300.\nTen (10) g of Triton X-100 was added to 38 ml of water and the mixture was stirred thoroughly."}, "protein kinase": {"test_system": "protein kinase", "conditions": "Berg et al. J. Biol. Chem. 267:13-16 (1992); cited from earlier work"}, "[2]": {"conditions": "cited from earlier work"}},
  "data": [
    {"smiles": "COC(=O)C1(O)CC2OC1(C)n1c3ccccc3c3c4c(c5c6ccccc6n2c5c31)C(=O)NC4", "note": "(centres unmarked) [Compound K-252a]", "values": [
      {"measurement": "solubility thermodynamic", "setting": "[1]; 50% peg 400, 50% h2o, Concentration Obtained, Example 1: 50% PEG 400, 50% H2O, target 10 mg/ml", "value": 1390, "unit": "µg/mL"},
      {"measurement": "solubility thermodynamic", "setting": "[1]; 50% peg 600, 50% h2o, Concentration Obtained, Example 2: 50% PEG 600, 50% H2O, target 10 mg/ml", "value": 1920, "unit": "µg/mL"},
      {"measurement": "solubility thermodynamic", "setting": "[1]; 50% peg 1000, 50% h2o, Concentration Obtained, Example 3: 50% PEG 1000, 50% H2O, target 10 mg/ml", "value": 1820, "unit": "µg/mL"},
      {"measurement": "solubility thermodynamic", "setting": "[1]; peg 300/ba/pvp/h2o, Concentration Obtained, Example 12: 47.5% PEG 300, 2.5% BA, 2.5% PVP, 47.5% H2O, target 10 mg/ml", "value": 9600, "unit": "µg/mL"},
      {"measurement": "solubility thermodynamic", "setting": "[1]; peg 400/ba/h2o, Concentration Obtained, Example 4: 50% PEG 400, 2% BA, 48% H2O, target 10 mg/ml", "value": 2080, "unit": "µg/mL"},
      {"measurement": "solubility thermodynamic", "setting": "[1]; peg 400/ba/pluronic f68/h2o, Concentration Obtained, Example 7: 47.5% PEG 400, 2.5% BA, 2.5% Pluronic F68, 47.5% H2O, target 10 mg/ml", "value": 5500, "unit": "µg/mL"},
      {"measurement": "solubility thermodynamic", "setting": "[1]; peg 400/ba/pluronic l61/h2o, Concentration Obtained, Example 8: 47.5% PEG 400, 2.5% BA, 2.5% Pluronic L61, 47.5% H2O, target 10 mg/ml", "value": 3500, "unit": "µg/mL"},
      {"measurement": "solubility thermodynamic", "setting": "[1]; peg 400/ba/pluronic l64/h2o, Concentration Obtained, Example 9: 47.5% PEG 400, 2.5% BA, 2.5% Pluronic L64, 47.5% H2O, target 10 mg/ml", "value": 1800, "unit": "µg/mL"},
      {"measurement": "solubility thermodynamic", "setting": "[1]; peg 400/ba/pvp/h2o, Concentration Obtained, Example 13: 47.5% PEG 400, 2.5% BA, 2.5% PVP, 47.5% H2O, target 10 mg/ml", "value": 10000, "unit": "µg/mL"},
      {"measurement": "solubility thermodynamic", "setting": "[1]; peg 400/ba/tween 20/h2o, Concentration Obtained, Example 10: 47.5% PEG 400, 2.5% BA, 2.5% Tween 20, 47.5% H2O, target 10 mg/ml", "value": 6000, "unit": "µg/mL"},
      {"measurement": "solubility thermodynamic", "setting": "[1]; peg 400/ba/tween 80/h2o, Concentration Obtained, Example 11: 47.5% PEG 400, 2.5% BA, 2.5% Tween 80, 47.5% H2O, target 10 mg/ml", "value": 3700, "unit": "µg/mL"},
      {"measurement": "solubility thermodynamic", "setting": "[1]; peg 600/ba/h2o, Concentration Obtained, Example 5: 50% PEG 600, 2% BA, 48% H2O, target 10 mg/ml", "value": 2720, "unit": "µg/mL"},
      {"measurement": "solubility thermodynamic", "setting": "[1]; peg 600/ba/pvp/h2o, Concentration Obtained (saturation level), Example 20: 47.5% PEG 600, 2.5% BA, 2.5% PVP, 47.5% H2O, 10 mg added", "value": 10000, "unit": "µg/mL"},
      {"measurement": "solubility thermodynamic", "setting": "[1]; peg 600/ba/pvp/h2o, Concentration Obtained (saturation level), Example 22: 50% PEG 600, 2% BA, 10% PVP, 38% H2O, 10 mg added", "value": 21200, "unit": "µg/mL"},
      {"measurement": "solubility thermodynamic", "setting": "[1]; peg 600/ba/pvp/h2o, Concentration Obtained, Example 14: 47.5% PEG 600, 2.5% BA, 2.5% PVP, 47.5% H2O, target 10 mg/ml", "value": 10000, "unit": "µg/mL"},
      {"measurement": "solubility thermodynamic", "setting": "[1]; peg 600/ba/pvp/h2o, Concentration Obtained, Example 18: 50% PEG 600, 2% BA, 10% PVP, 38% H2O, target 10 mg/ml", "value": 10000, "unit": "µg/mL"},
      {"measurement": "solubility thermodynamic", "setting": "[1]; peg 600/ba/triton x-100/h2o, Concentration Obtained, Example 16: 50% PEG 600, 2% BA, 10% Triton X-100, 38% H2O, target 10 mg/ml", "value": 10000, "unit": "µg/mL"},
      {"measurement": "solubility thermodynamic", "setting": "[1]; peg 600/ba/tween 80/h2o, Concentration Obtained, Example 17: 50% PEG 600, 2% BA, 10% Tween 80, 38% H2O, target 10 mg/ml", "value": 8830, "unit": "µg/mL"},
      {"measurement": "solubility thermodynamic", "setting": "[1]; peg 1000/ba/h2o, Concentration Obtained, Example 6: 50% PEG 1000, 2% BA, 48% H2O, target 10 mg/ml", "value": 1830, "unit": "µg/mL"},
      {"measurement": "solubility thermodynamic", "setting": "[1]; peg 1000/ba/pvp/h2o, Concentration Obtained (saturation level), Example 21: 47.5% PEG 1000, 2.5% BA, 2.5% PVP, 47.5% H2O, 10 mg added", "value": 14100, "unit": "µg/mL"},
      {"measurement": "solubility thermodynamic", "setting": "[1]; peg 1000/ba/pvp/h2o, Concentration Obtained, Example 15: 47.5% PEG 1000, 2.5% BA, 2.5% PVP, 47.5% H2O, target 10 mg/ml", "value": 10000, "unit": "µg/mL"},
      {"measurement": "solubility thermodynamic", "setting": "[1]; peg 1000/ba/pvp/h2o, Concentration Obtained, Example 19: 40% PEG 1000, 2% BA, 10% PVP, 48% H2O, target 10 mg/ml", "value": 10000, "unit": "µg/mL"},
      {"measurement": "modulation of neurotrophin responses by affecting protein kinase activity", "setting": "protein kinase", "value": "modulate neurotrophin responses"},
      {"measurement": "insolubility in water", "setting": "[2]; Nakanishi et al.", "value": "insolubility"},
      {"measurement": "solubility in non-aqueous, toxic solvents", "setting": "[2]; non-aqueous, toxic solvents", "value": "soluble in non-aqueous, toxic solvents"},
      {"measurement": "solubility in water", "setting": "[2]; water", "value": "insoluble in water"}
    ]}
  ]
}
